Data reported in US6903183B1, “Compositions and methods for regulation of steroidogenesis” (Texas Tech University Health Services Center, priority 1996, dated 2005).
Entries after “also recorded” stand apart in the source; their conditions may differ. No end group written: not given here.

Tests used:
StAR protein [1] = test: Immunoblot of StAR protein expression in H295R cells; type: cell-based, human; conditions: treatment of H295R cells with agonist
Protocol: FIG. 4. Effect of KN93 on agonist-stimulated aldosterone production and StAR protein expression in H295R cells. […] The medium aldosterone content was determined by R.I.A. and normalized to the tissue culture well protein content. Data points represent the mean ±SE of values from six separate culture wells expressed as fold increase over basal. Significant inhibition relative to the control response is indicated at *p<0.01. StAR protein was examined using equivalent amounts of total cellular lysate (30 μg) by immunoblot analysis as described in the Methods. Results are representative of those obtained from three separate experiments.
For each treatment, cells were solubilized as described above and an equivalent amount of protein (30 μg) for each sample were separated by SDS-PAGE (12.5%) and then electrophoretically transferred to polyvinylidene difluoride membrane as previously described (Clark et al (1994) J. Biol. Chem., 269:2831-322, reference specifically incorporated herein by reference). Immunoblot analysis was as described (Id) using a rabbit sera containing the specific StAR antipeptide antibody (see ANTIBODIES infra) as the primary label and a donkey anti-rabbit IgG conjugated with horseradish peroxidase (Amersham, Arlington Heights, Ill.). The specific signal was detected by chemiluminescence assays using the Renaissance kit from DuPont NEN (Boston, Mass.) and the StAR specific bands were quantitated by BioImage Visage 2000 computer-assisted image analysis (BioImage, Ann Arbor, Mich.). Different exposure times were used to insure linearity.

[2] = system: bovine zona glomerulosa cells; test: Cholesterol content of submitochondrial fractions (cholesterol oxidase assay); type: cell-based
Protocol: (§1) Freshly-prepared bovine zona glomerulosa cells were stimulated with Ang II (10 nM) or submitted to a cytosolic Ca^2+ clamp (600 nM) for 2 h. Mitochondria were isolated and subfractionated into outer membranes (OM), inner membranes (IM) and contact sites (CS). Cholesterol content was determined by the cholesterol oxidase assay.
as §1, with “gomerulosa” for “glomerulosa”, “h, as described in Example 9.” for “h.”, “assay, also as described in Example 9.” for “assay.”

StAR protein [3] = test: Western blot of StAR protein in mitochondria of glomerulosa cells; type: cell-based, bovine
StAR protein [4] = test: Synthesis of StAR protein in MA-10 cells after CRH, dbcAMP or hCG; type: cell-based, mouse

`COC(=O)C1=C(C)NC(C)=C([N+](=O)[O-])C1c1ccccc1C(F)(F)F` (stereo not drawn) [Bay K, (=)-Bay K 8644] was tested. Which “amount of StAR protein” value (StAR protein [1]) did it give?
Its value is “increased; also recorded: elevated”.

How did the “cholesterol content of OM” value ([2]; cytosolic Ca2+ clamp 600 nM, 2 h, n=5) turn out when `[Ca+2]` [Ca^2+] was run?
Its value is 54±24 % of controls.

What about the “StAR protein in mitochondrial extracts” value (StAR protein [3]; Ca2+ stimulation, cycloheximide-sensitive, n=5) of the same compound?
The value was 141±14 % of controls.

How did the “Ca2+-activated cholesterol transfer to IM” value [2] turn out when `C[C@@H]1C[C@@H]([C@H](O)CC2CC(=O)NC(=O)C2)C(=O)[C@@H](C)C1` [Cycloheximide] was run?
The value was “significantly reduced”.

What about the “effect on Ang II increase of StAR in IM” value (StAR protein [3]) of the same compound?
The value was “prevented”.

For `[Cl-].[K+]` [K^+, potassium chloride], which “amount of StAR protein” value (StAR protein [1]) is on record?
The value was “increased; also recorded: elevated”.

How did the “concentration of maximal response (StAR synthesis)” value (StAR protein [4]) turn out when “CRH: Corticotropin-Releasing Hormone (SEEPPISLDLTFHLLREVLEMARAEQLAQQAHSNRKLMEII; ends and bridges not checked; UniProt P06850 154-194, looked up)” was run?
The value was 1 µM.

And the “synthesis of the StAR protein” value (StAR protein [4])?
Its value is “dose-dependent increase”.

What about the “time of maximal response following stimulation” value (StAR protein [4]; CRH at 1 μM) of the same compound?
Its value is 4 h.

And the “level of StAR synthesis versus maximal doses of CRH or hCG alone” value (StAR protein [4]; in the presence of hCG)?
The value was “higher level”.

For “[Val^5]-Angiotensin II acetate (DRVYVHPF; also: acetate salt; UniProt P01019 25-32, looked up, variant I5V) [Ang II]”, which “amount of StAR protein” value (StAR protein [1]) is on record?
Its value is “increased; also recorded: elevated”.

What about the OM cholesterol ([2]; Ang II 10 nM, 2 h) of the same compound?
The OM cholesterol was “No significant changes”.

And the “cholesterol in contact sites (CS)” value ([2]; Ang II 10 nM, 2 h, n=3)?
Its value is 172±28 % of controls.

And the StAR protein (StAR protein [3]; Ang II stimulated glomerulosa cells, n=2)?
The StAR protein was 157 % of controls.

And the “StAR in IM” value (StAR protein [3]; Ang II stimulation)?
Its value is “increased”.
